Data on twelve molecules can be found in patent US20080145383A1, “Method for Solubilizing Peptide Mixtures” (priority 2004, published 2008).

Series [1] in a line: Solubility of the single peptides in water and DMSO. The format is physicochemical. Particulars: single peptide. As to the method:
In the scope of the present invention peptides are characterised by their solubility. Peptides which are soluble in an aqueous solution less than 100 μg/ml are considered hydrophobic. On the other hand hydrophilic peptides dissolve in a buffered aqueous solution in concentration over 100 μg/ml. Hydrophilic peptides may further be divided into cationic (>20% basic amino acids including lysine, arginine, histidine), anionic (>20% acidic amino acids including aspartic acid, glutamic acid) and hydroxyl-rich peptides (>30% —OH containing amino acids like serine, threonine, tyrosine).
The peptide mixture contains 6 peptides (see table 1), which show a broad range of solubility. […] Peptides 1236, 1240, and 1242 can sequentially be dissolved in water, provided that the final pH is adjusted to pH 8.5. At lower pH a gel is formed presumably due to charge interactions and/or hydrogen bond formation. This gel can not be sterile filtered as it blocks the filter immediately. However, upon addition of poly-L-arginine (pR) to the aqueous solution of the three peptides a precipitate forms that makes sterile filtration of the solution impossible.
As with the formulation of example 1, for the manufacturing of a suspension formulation it is necessary first to dissolve peptides 83 and 84 in an aqueous buffer solution and peptides 87, 89, and 1426 in DMSO. After sterile filtration the solutions can be combined to form the final suspension.

The conditions of series [2]: suspension formulation stored at room temperature (Figure C).

Peptide text beside a SMILES is read from it.

Take `CC[C@H](C)[C@H](NC(=O)[C@H](CCC(N)=O)NC(=O)CNC(=O)CNC(=O)CNC(=O)[C@@H]1CCCN1C(=O)[C@H](Cc1ccccc1)NC(=O)[C@@H](N)CCCCN)C(=O)N[C@H](C(=O)NCC(=O)NCC(=O)N[C@H](C(=O)N[C@@H](Cc1ccc(O)cc1)C(=O)N[C@@H](CC(C)C)C(=O)N[C@@H](CC(C)C)C(=O)N1CCC[C@H]1C(=O)N[C@@H](CCCNC(=N)N)C(=O)N[C@@H](CCCNC(=N)N)C(=O)NCC(=O)N1CCC[C@H]1C(=O)N[C@@H](CCCNC(=N)N)C(=O)N[C@@H](CC(C)C)C(=O)O)C(C)C)C(C)C` [Peptide 83] (H-KFPGGGQIVGGVYLLPRRGPRL-OH; N-terminus and C-terminus assumed): in series [1], the “solubility in DMSO” value was “soluble” and the solubility in water entry was “soluble”.

Regarding `CC(C)C[C@H](NC(=O)[C@@H](NC(=O)[C@H](CC(C)C)NC(=O)[C@@H](NC(=O)[C@H](CCCCN)NC(=O)[C@H](Cc1ccc(O)cc1)NC(=O)CN)C(C)C)C(C)C)C(=O)N[C@@H](CC(N)=O)C(=O)N1CCC[C@H]1C(=O)N[C@@H](CO)C(=O)N[C@H](C(=O)N[C@@H](C)C(=O)N[C@@H](C)C(=O)N[C@H](C(=O)O)[C@@H](C)O)C(C)C` [Peptide 84], in series [1], the “solubility in DMSO” value was “soluble” and the solubility in water result is given as “soluble”. The solubility in water entry in series [1] (listed as Ipep 84) is listed as “water soluble”.

Consider `CC[C@H](C)[C@H](NC(=O)[C@H](Cc1ccc(O)cc1)NC(=O)CNC(=O)[C@H](CCSC)NC(=O)[C@H](CC(C)C)NC(=O)[C@@H](N)CC(=O)O)C(=O)N1CCC[C@H]1C(=O)N[C@@H](C)C(=O)N[C@H](C(=O)O)C(C)C` [Peptide 87] (H-DLMGYIPAV-OH; N-terminus and C-terminus assumed), for which, in series [1], the “solubility in DMSO” value is listed as “dissolve easily in DMSO” and the solubility in water entry is on record as “poorly water soluble”.

As to `CC[C@H](C)[C@H](N)C(=O)N[C@@H](CC(=O)O)C(=O)N[C@@H](CCC(=O)O)C(=O)N[C@@H](CC(C)C)C(=O)N[C@@H](CCCCN)C(=O)N[C@H](C(=O)N[C@@H](CC(N)=O)C(=O)N[C@@H](CO)C(=O)N[C@@H](CO)C(=O)N[C@@H](CC(C)C)C(=O)N[C@@H](CC(C)C)C(=O)N[C@H](C(=O)N[C@@H](CO)C(=O)N[C@H](C(=O)N[C@@H](CC(C)C)C(=O)N[C@H](C(=O)N[C@@H](Cc1ccc(O)cc1)C(=O)N[C@@H](Cc1c[nH]cn1)C(=O)N[C@H](C(=O)N[C@H](C(=O)O)C(C)C)C(C)C)[C@@H](C)O)[C@@H](C)CC)[C@@H](C)O)[C@@H](C)O` [Peptide 1235] (H-IDELKTNSSLLTSILTYHVV-OH; N-terminus and C-terminus assumed), in series [1], the “solubility in DMSO” value was “only dissolve in DMSO” and the solubility in water entry is recorded as “hydrophobic”.

As for `CC[C@H](C)[C@H](NC(=O)[C@H](CC(N)=O)NC(=O)[C@@H](NC(=O)[C@@H](NC(=O)CNC(=O)[C@H](C)NC(=O)[C@H](C)NC(=O)[C@H](C)NC(=O)[C@H](CCC(N)=O)NC(=O)[C@H](C)NC(=O)[C@@H](NC(=O)CNC(=O)[C@H](C)NC(=O)CNC(=O)[C@H](CO)NC(=O)CNC(=O)[C@@H](N)[C@@H](C)O)[C@@H](C)CC)[C@@H](C)O)C(C)C)C(=O)O` [Peptide 1236], in series [1], the “solubility in DMSO” value was “does not dissolve in DMSO” and the solubility in water result is given as “slowly dissolves in water”.

Regarding `CC[C@H](C)[C@H](NC(=O)[C@@H](NC(=O)[C@H](C)NC(=O)[C@@H](NC(=O)[C@H](CO)NC(=O)[C@H](CO)NC(=O)[C@H](CCCCN)NC(=O)[C@H](CC(C)C)NC(=O)[C@H](CC(=O)O)NC(=O)[C@H](CO)NC(=O)[C@@H](N)C(C)C)[C@@H](C)O)C(C)C)C(=O)N1CCC[C@H]1C(=O)NCC(=O)N[C@@H](Cc1ccc(O)cc1)C(=O)N1CCC[C@H]1C(=O)N[C@H](C(=O)N[C@@H](C)C(=O)NCC(=O)N[C@@H](CCC(N)=O)C(=O)N[C@H](C(=O)O)C(C)C)C(C)C` [Peptide 1240] (H-VSDLKSSTAVIPGYPVAGQV-OH; N-terminus and C-terminus assumed), in series [1], the “solubility in DMSO” value is recorded as “can also be dissolved in DMSO” and the solubility in water result is on record as “water soluble”.

On to `CC(C)C[C@H](NC(=O)[C@H](Cc1ccccc1)NC(=O)[C@@H](N)CC(N)=O)C(=O)N[C@@H](CC(C)C)C(=O)N1CCC[C@H]1C(=O)N[C@@H](CC(=O)O)C(=O)N[C@@H](C)C(=O)N[C@@H](CCC(N)=O)C(=O)N[C@@H](C)C(=O)N[C@@H](C)C(=O)N[C@@H](C)C(=O)N[C@@H](C)C(=O)NCC(=O)N[C@@H](Cc1ccccc1)C(=O)N[C@@H](C)C(=O)N[C@@H](CO)C(=O)N[C@@H](CCCCN)C(=O)O` [Peptide 1241] (H-NFLLPDAQAAAAGFASK-OH; N-terminus and C-terminus assumed), for which, in series [1], the “solubility in DMSO” value is “only dissolve in DMSO” and the solubility in water result is “hydrophobic”.

`CC[C@H](C)[C@H](NC(=O)[C@H](CC(N)=O)NC(=O)[C@@H](NC(=O)[C@H](CC(N)=O)NC(=O)[C@@H](N)Cc1ccc(O)cc1)[C@@H](C)CC)C(=O)N[C@@H](CO)C(=O)N[C@@H](CC(C)C)C(=O)N1CCC[C@H]1C(=O)N[C@@H](CO)C(=O)N[C@@H](Cc1ccc(O)cc1)C(=O)N[C@@H](Cc1ccc(O)cc1)C(=O)N1CCC[C@H]1C(=O)N[C@@H](CC(=O)O)C(=O)N[C@@H](CCC(N)=O)C(=O)N[C@@H](CCCCN)C(=O)N[C@@H](CO)C(=O)N[C@@H](CC(C)C)C(=O)N[C@@H](CCC(=O)O)C(=O)N[C@@H](CC(N)=O)C(=O)N[C@@H](Cc1ccc(O)cc1)C(=O)O` [Peptide 1242] (H-YNINISLPSYYPDQKSLENY-OH; N-terminus and C-terminus assumed): in series [1], the “solubility in DMSO” value is on record as “can also be dissolved in DMSO” and the solubility in water entry is “water soluble”.

Turning to `CC[C@H](C)[C@H](NC(=O)CNC(=O)[C@H](CO)NC(=O)[C@@H](NC(=O)[C@H](Cc1ccccc1)NC(=O)[C@H](CC(N)=O)NC(=O)[C@H](Cc1c[nH]c2ccccc12)NC(=O)[C@H](CCSC)NC(=O)[C@@H](N)Cc1c[nH]cn1)[C@@H](C)CC)C(=O)N[C@@H](CCC(N)=O)C(=O)N[C@@H](Cc1ccc(O)cc1)C(=O)N[C@@H](CC(C)C)C(=O)N[C@@H](C)C(=O)NCC(=O)N[C@@H](CC(C)C)C(=O)N[C@@H](CO)C(=O)N[C@H](C(=O)N[C@@H](CC(C)C)C(=O)N1CCC[C@H]1C(=O)NCC(=O)N[C@@H](CC(N)=O)C(=O)N1CCC[C@H]1C(=O)N[C@@H](C)C(=O)O)[C@@H](C)O` [Peptide 1426] (H-HMWNFISGIQYLAGLSTLPGNPA-OH; N-terminus and C-terminus assumed), the “solubility in DMSO” value in series [1] is “only soluble in DMSO”.

On to `CC[C@H](C)[C@H](N)C(=O)NCC(=O)N[C@@H](CC(C)C)C(=O)NCC(=O)N[C@@H](CCCCN)C(=O)N[C@H](C(=O)N[C@@H](CC(C)C)C(=O)N[C@H](C(=O)N[C@@H](CC(=O)O)C(=O)N[C@H](C(=O)N[C@@H](CC(C)C)C(=O)N[C@@H](C)C(=O)NCC(=O)N[C@@H](Cc1ccc(O)cc1)C(=O)NCC(=O)N[C@@H](C)C(=O)NCC(=O)N[C@H](C(=O)N[C@@H](C)C(=O)NCC(=O)N[C@@H](C)C(=O)N[C@@H](CC(C)C)C(=O)N[C@H](C(=O)N[C@@H](C)C(=O)N[C@@H](Cc1ccccc1)C(=O)N[C@@H](CCCCN)C(=O)O)C(C)C)C(C)C)[C@@H](C)CC)C(C)C)C(C)C` [Peptide 1798] (H-IGLGKVLVDILAGYGAGVAGALVAFK-OH; N-terminus and C-terminus assumed), for which the solubility in water result in series [1] is given as “water soluble on its own”.

With `CC[C@H](C)[C@H](NC(=O)[C@H](CCC(N)=O)NC(=O)CNC(=O)CNC(=O)CNC(=O)[C@@H]1CCCN1C(=O)[C@H](Cc1ccccc1)NC(=O)[C@@H](N)CCCCN)C(=O)N[C@H](C(=O)NCC(=O)NCC(=O)N[C@H](C(=O)N[C@@H](Cc1ccc(O)cc1)C(=O)N[C@@H](CC(C)C)C(=O)N[C@@H](CC(C)C)C(=O)N1CCC[C@H]1C(=O)N[C@@H](CCCNC(=N)N)C(=O)N[C@@H](CCCNC(=N)N)C(=O)NCC(=O)N1CCC[C@H]1C(=O)N[C@@H](CCCNC(=N)N)C(=O)N[C@@H](CC(C)C)C(=O)NCC(=O)N[C@H](C(=O)N[C@@H](CCCNC(=N)N)C(=O)N[C@@H](C)C(=O)N[C@H](C(=O)N[C@@H](CCCNC(=N)N)C(=O)N[C@@H](CCCCN)C(=O)O)[C@@H](C)O)C(C)C)C(C)C)C(C)C` [Peptide 1835] (H-KFPGGGQIVGGVYLLPRRGPRLGVRATRK-OH; N-terminus and C-terminus assumed), the solubility in water result in series [1] is given as “water soluble”.

As for `CC[C@H](C)[C@H](NC(=O)[C@@H](NC(=O)[C@H](Cc1ccccc1)NC(=O)[C@H](CC(N)=O)NC(=O)[C@@H](NC(=O)[C@@H](NC(=O)[C@H](CS)NC(=O)[C@@H]1CCCN1C(=O)[C@H](Cc1ccc(O)cc1)NC(=O)[C@H](Cc1c[nH]cn1)NC(=O)[C@H](Cc1c[nH]c2ccccc12)NC(=O)[C@H](CC(C)C)NC(=O)[C@H](CCCNC(=N)N)NC(=O)[C@H](Cc1ccc(O)cc1)NC(=O)[C@@H]1CCCN1C(=O)[C@H](Cc1ccc(O)cc1)NC(=O)[C@@H](N)CC(=O)O)[C@@H](C)O)C(C)C)[C@@H](C)O)C(=O)N[C@@H](Cc1ccccc1)C(=O)N[C@@H](CCCCN)C(=O)N[C@H](C(=O)O)C(C)C` [Peptide 1846] (H-DYPYRLWHYPCTVNFTIFKV-OH; N-terminus and C-terminus assumed), the degradation result in series [2] is recorded as “oxidation of Ipep 1846 to its dimer”.
